target: EBI2 (Homo sapiens, UniProt P32249); assay: Cell-based luminescent assay (EBI2 modulation); details: cell-based luminescence; 7a,25-OHC final assay concentration 80 nM; 60 minutes incubation; read-out: IC50
Procedure, shortened: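 Cells plated overnight at 37° C, then exposed to compound at 4-5 uM final with 80 nM 7a,25-OHC agonist for 60 min at 37° C. Luminescence read after 60 min detection at 25° C in the dark; values normalized to neutral and stimulator controls and plate-pattern corrected.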

EBI2, sequence (P32249 whole entry): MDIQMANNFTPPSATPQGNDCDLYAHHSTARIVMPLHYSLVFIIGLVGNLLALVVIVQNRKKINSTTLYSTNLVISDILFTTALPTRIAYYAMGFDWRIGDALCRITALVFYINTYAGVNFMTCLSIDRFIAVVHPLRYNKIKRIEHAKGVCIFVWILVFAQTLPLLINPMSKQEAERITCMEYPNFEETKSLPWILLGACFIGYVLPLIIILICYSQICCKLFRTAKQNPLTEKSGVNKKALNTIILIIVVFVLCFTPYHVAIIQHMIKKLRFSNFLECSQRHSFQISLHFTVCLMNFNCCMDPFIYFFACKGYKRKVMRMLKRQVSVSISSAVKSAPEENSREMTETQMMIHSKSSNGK

Question: For `O=C(/C=C/c1ccc(Br)cc1)N1CCCN(S(=O)(=O)/C=C/c2ccccc2)CC1` [Compound C355, (2E)-1-{4-[((1E)-2-phenylvinyl)sulfonyl](1,4-diazaperhydroepinyl)}-3-(4-bromophenyl)prop-2-en-1-one], which IC50 is on record?
Answer: < 0.1 µM

Question: Which IC50 does the source give for `O=C(C#Cc1ccc(Cl)cc1)N1CCN(Cc2ccc(C(F)(F)F)cc2)CC1` [Compound C356, 3-(4-chlorophenyl)-1-(4-{[4-(trifluoromethyl)phenyl]methyl}piperazinyl)prop-2-yn-1-one] here?
Answer: < 0.1 µM

Question: For `Cc1cc(F)ccc1OC1CCN(C(=O)c2cc3cc(Cl)ccc3[nH]2)CC1` [Compound C357, 5-chloroindol-2-yl 4-(4-fluoro-2-methylphenoxy)piperidyl ketone], which IC50 is on record?
Answer: < 0.1 µM

Question: For `COC(=O)c1cccc(CN2CCN(C(=O)c3cc4cc(Cl)ccc4[nH]3)CC2)c1` [Compound C358, methyl 3-({4-[(5-chloroindol-2-yl)carbonyl]piperazinyl}methyl)benzoate], which IC50 is on record?
Answer: < 0.1 µM

Question: `COC(=O)c1cccc(C(=O)N2CCN(C(=O)c3cc4cc(Cl)ccc4[nH]3)CC2)c1` [Compound C363, methyl 3-({4-[(5-chloroindol-2-yl)carbonyl]piperazinyl}carbonyl)benzoate] was tested. Which IC50 did it give?
Answer: 0.1 to 0.5 µM

Question: `O=C(/C=C/c1ccccc1)N1CCN(Cc2cccc(Cl)c2)CC1` [Compound C365, (2E)-1-{4-[(3-chlorophenyl)methyl]piperazinyl}-3-phenylprop-2-en-1-one] was tested. Which IC50 did it give?
Answer: < 0.1 µM

Question: `O=C(c1ccc(Cl)cc1)N1CCN(C(=O)c2cc3ccc(F)cc3[nH]2)CC1` [Compound C366, 4-[(4-chlorophenyl)carbonyl]piperazinyl 6-fluoroindol-2-yl ketone] was tested. Which IC50 did it give?
Answer: 0.1 to 0.5 µM

Question: Which IC50 does the source give for `O=C(/C=C/c1ccc(F)cc1)N1CCN(S(=O)(=O)c2cccs2)CC1` [Compound C367, (2E)-3-(4-fluorophenyl)-1-[4-(2-thienylsulfonyl)piperazinyl]prop-2-en-1-one] here?
Answer: < 0.1 µM

Question: For `CCCCN1CCN(C(=O)c2cc3cc(Cl)ccc3[nH]2)CC1` [Compound C368, 4-butylpiperazinyl 5-chloroindol-2-yl ketone], which IC50 is on record?
Answer: < 0.1 µM

Question: For `O=C(C#Cc1ccc(Cl)cc1)N1CCN(Cc2ccc(F)cc2)CC1` [Compound C369, 3-(4-chlorophenyl)-1-{4-[(4-fluorophenyl)methyl]piperazinyl}prop-2-yn-1-one], which IC50 is on record?
Answer: < 0.1 µM

Question: For `O=C(c1cc2cc(Br)ccc2[nH]1)N1CCN(Cc2ccc(C(F)(F)F)cc2)CC1` [Compound C371, 5-bromoindol-2-yl 4-{[4-(trifluoromethyl)phenyl]methyl}piperazinyl ketone], which IC50 is on record?
Answer: < 0.1 µM

Question: For `COc1ccc(CN2CCN(C(=O)C#Cc3ccc(Cl)cc3)CC2)cc1` [Compound C372, 3-(4-chlorophenyl)-1-{4-[(4-methoxyphenyl)methyl]piperazinyl}prop-2-yn-1-one], which IC50 is on record?
Answer: < 0.1 µM

Question: Which IC50 does the source give for `O=C(/C=C/c1ccccc1)N1CCN(Cc2ccccc2Cl)CC1` [Compound C374, (2E)-1-{4-[(2-chlorophenyl)methyl]piperazinyl}-3-phenylprop-2-en-1-one] here?
Answer: < 0.1 µM

Question: For `O=C(c1ccc(C(F)(F)F)cc1)N1CCN(C(=O)c2cc3ccc(Br)cc3[nH]2)CC1` [Compound C375, 6-bromoindol-2-yl 4-{[4-(trifluoromethyl)phenyl]carbonyl}piperazinyl ketone], which IC50 is on record?
Answer: 0.1 to 0.5 µM

Question: `O=C(/C=C/c1ccc(Br)cc1F)N1CCN(S(=O)(=O)c2ccc(Br)cc2)CC1` [Compound C377, (2E)-3-(4-bromo-2-fluorophenyl)-1-{4-[(4-bromophenyl)sulfonyl]piperazinyl}prop-2-en-1-one] was tested. Which IC50 did it give?
Answer: < 0.1 µM

Question: With `O=C(c1cc2cc(Cl)ccc2[nH]1)N1CCN(C(=O)c2ccc(F)cc2F)CC1` [Compound C378, 4-[(2,4-difluorophenyl)carbonyl]piperazinyl 5-chloroindol-2-yl ketone] as the molecule, how does the IC50 read?
Answer: < 0.1 µM

Question: Which IC50 does the source give for `O=C(c1cc2sccc2[nH]1)N1CCN(C(c2ccccc2)c2ccccc2)CC1` [Compound C380, 4-(diphenylmethyl)piperazinyl thiopheno[2,3-d]pyrrol-5-yl ketone] here?
Answer: < 0.1 µM

Question: Which IC50 does the source give for `O=C(c1ccc(Br)cc1)N1CCN(C(=O)c2ccc3ccccc3c2)CC1` [Compound C381, 4-bromophenyl 4-(2-naphthylcarbonyl)piperazinyl ketone] here?
Answer: < 0.1 µM

Question: For `O=C(c1ccc(B(O)O)cc1)N1CCN(C(=O)c2cc3ccc(Br)cc3[nH]2)CC1` [Compound C382, 4-(4-(6-bromo-1H-indole-2-carbonyl)piperazine-1-carbonyl)phenylboronic acid], which IC50 is on record?
Answer: < 0.1 µM

Question: `O=C(C#Cc1ccc(Cl)cc1)N1CCN(Cc2ccc(Cl)cc2)CC1` [Compound C384, 3-(4-chlorophenyl)-1-{4-[(4-chlorophenyl)methyl]piperazinyl}prop-2-yn-1-one] was tested. Which IC50 did it give?
Answer: < 0.1 µM

Question: Which IC50 does the source give for `COc1ccc(/C=C/C(=O)N2CCN(S(=O)(=O)c3ccc(C(C)(C)C)cc3)CC2)cc1` [Compound C385, (2E)-1-(4-{[4-(tert-butyl)phenyl]sulfonyl}piperazinyl)-3-(4-methoxyphenyl)prop-2-en-1-one] here?
Answer: < 0.1 µM

Question: `O=C(c1cc2cc(Cl)ccc2[nH]1)N1CCC(Oc2ccc(C(F)(F)F)cc2)CC1` [Compound C390, 5-chloroindol-2-yl 4-[4-(trifluoromethyl)phenoxy]piperidyl ketone] was tested. Which IC50 did it give?
Answer: 0.1 to 0.5 µM

Question: For `O=C(c1ccc(C(F)(F)F)cc1)N1CCN(C(=O)c2cc3ccc(Cl)cc3[nH]2)CC1` [Compound C391, 6-chloroindol-2-yl 4-{[4-(trifluoromethyl)phenyl]carbonyl}piperazinyl ketone], which IC50 is on record?
Answer: < 0.1 µM

Question: With `CC(C)CN1CCN(C(=O)/C=C/c2ccccc2)CC1` [Compound C392, (2E)-1-[4-(methylpropyl)piperzinyl]-3-phenylprop-2-en-1-one] as the molecule, how does the IC50 read?
Answer: < 0.1 µM

Question: For `N#Cc1cccc(C(=O)N2CCN(C(=O)c3cc4cc(Cl)ccc4[nH]3)CC2)c1` [Compound C395, 3-({4-[(5-chloroindol-2-yl)carbonyl]piperazinyl}carbonyl)benzenecarbonitrile], which IC50 is on record?
Answer: < 0.1 µM

Question: Which IC50 does the source give for `O=C(Nc1cccc(Cl)c1)C1CCN(C(=O)c2cc3cc(Cl)ccc3[nH]2)CC1` [Compound C396, {1-[(5-chloroindol-2-yl)carbonyl](4-piperidyl)}-N-(3-chlorophenyl)carboxamide] here?
Answer: < 0.1 µM

Question: For `O=Cc1ccc(C(=O)N2CCN(C(=O)c3cc4cc(Cl)ccc4[nH]3)CC2)cc1` [Compound C397, 4-({4-[(5-chloroindol-2-yl)carbonyl]piperazinyl}carbonyl)benzaldehyde], which IC50 is on record?
Answer: < 0.1 µM

Question: With `O=C(C#Cc1ccc(Cl)cc1)N1CCN(C(=O)c2ccc(F)cc2C(F)(F)F)CC1` [Compound C399, 3-(4-chlorophenyl)-1-(4-{[4-fluoro-2-(trifluoromethyl)phenyl]carbonyl}piperazinyl)prop-2-yn-1-one] as the molecule, how does the IC50 read?
Answer: < 0.1 µM

Question: How did the IC50 turn out when `Cc1cccc(N2CCN(C(=O)c3cc4cc(Cl)ccc4[nH]3)CC2)c1C` [Compound C400, 4-(2,3-dimethylphenyl)piperazinyl 5-chloroindol-2-yl ketone] was run?
Answer: < 0.1 µM

Question: Which IC50 does the source give for `O=C(C#Cc1ccc(Br)cc1)N1CCN(Cc2ccc(F)cc2)CC1` [Compound C401, 3-(4-bromophenyl)-1-{4-[(4-fluorophenyl)methyl]piperazinyl}prop-2-yn-1-one] here?
Answer: < 0.1 µM

Question: Which IC50 does the source give for `O=C(c1cc2cc(Cl)ccc2[nH]1)N1CCN(Cc2ccc(C(F)(F)F)c(F)c2)CC1` [Compound C402, 5-chloroindol-2-yl 4-{[3-fluoro-4-(trifluoromethyl)phenyl]methyl}piperazinyl ketone] here?
Answer: < 0.1 µM

Question: For `O=C(c1cc2cc(Cl)ccc2[nH]1)N1CCN(Cc2cccc(-c3ccccc3)c2)CC1` [Compound C403, 5-chloroindol-2-yl 4-[(3-phenylphenyl)methyl]piperazinyl ketone], which IC50 is on record?
Answer: < 0.1 µM

Question: With `O=C(/C=C/c1ccc(Br)cc1F)N1CCN(S(=O)(=O)c2ccccc2)CC1` [Compound C404, (2E)-3-(4-bromo-2-fluorophenyl)-1-[4-(phenylsulfonyl)piperazinyl]prop-2-en-1-one] as the molecule, how does the IC50 read?
Answer: < 0.1 µM

Question: `O=C(CCc1ccc(F)cc1)N1CCN(S(=O)(=O)/C=C/c2ccccc2)CC1` [Compound C406, 1-{4-[((1E)-2-phenylvinyl)sulfonyl]piperazinyl}-3-(4-fluorophenyl)propan-1-one] was tested. Which IC50 did it give?
Answer: 0.1 to 0.5 µM

Question: How did the IC50 turn out when `O=C(/C=C/c1ccccc1)N1CCN(CCOc2ccc(Cl)cc2Cl)CC1` [Compound C407, (2E)-1-{4-[2-(2,4-dichlorophenoxy)ethyl]piperazinyl}-3-phenylprop-2-en-1-one] was run?
Answer: 0.1 to 0.5 µM

Question: For `O=C(C#Cc1ccc(Br)cc1)N1CCN(Cc2ccc(C(F)(F)F)cc2)CC1` [Compound C408, 3-(4-bromophenyl)-1-(4-{[4-(trifluoromethyl)phenyl]methyl}piperazinyl)prop-2-yn-1-one], which IC50 is on record?
Answer: 0.1 to 0.5 µM

Question: Which IC50 does the source give for `O=C(c1ccc(B(O)O)cc1)N1CCN(C(=O)c2cc3cc(Cl)ccc3[nH]2)CC1` [Compound C409, 4-(4-(5-chloro-1H-indole-2-carbonyl)piperazine-1-carbonyl)phenylboronic acid] here?
Answer: 0.1 to 0.5 µM

Question: `O=C(c1cc2cc(Cl)ccc2[nH]1)N1CCC(Oc2ccccc2)CC1` [Compound C413, 5-chloroindol-2-yl 4-phenoxypiperidyl ketone] was tested. Which IC50 did it give?
Answer: 0.1 to 0.5 µM

Question: How did the IC50 turn out when `O=C(Oc1ccccc1)N1CCN(C(=O)c2cc3cc(Cl)ccc3[nH]2)CC1` [Compound C416, phenyl 4-[(5-chloroindol-2-yl)carbonyl]piperazinecarboxylate] was run?
Answer: 0.1 to 0.5 µM

Question: With `O=C(Nc1cccc(F)c1)C1CCN(C(=O)c2cc3cc(Cl)ccc3[nH]2)CC1` [Compound C417, {1-[(5-chloroindol-2-yl)carbonyl](4-piperidyl)}-N-(3-fluorophenyl)carboxamide] as the molecule, how does the IC50 read?
Answer: 0.1 to 0.5 µM

Question: Which IC50 does the source give for `O=C(c1cc2cc(Cl)ccc2[nH]1)N1CCN(Cc2ccc(F)c(C(F)(F)F)c2)CC1` [Compound C420, 5-chloroindol-2-yl 4-{[4-fluoro-3-(trifluoromethyl)phenyl]methyl}piperazinyl ketone] here?
Answer: 0.1 to 0.5 µM

Question: Which IC50 does the source give for `COc1ccc(-c2ccc(S(=O)(=O)N3CCN(C(=O)c4cc5cc(Cl)ccc5[nH]4)CC3)cc2)cc1` [Compound C421, 5-chloroindol-2-yl 4-{[4-(4-methoxyphenyl)phenyl]sulfonyl}piperazinyl ketone] here?
Answer: 0.1 to 0.5 µM

Reference: patent publication US9776979B2, “EBI2 modulators” (Sanford-Burnham Medical Research Institute, priority 2013, dated 2017)
